Each block holds one molecule with its values, some of them ahead of it.
Key:
[1] = human, in vivo
Experimental: Experiments with healthy volunteers. After having fasted for 8 hours six healthy male volunteers were intubated (cf. example 1) with quadruple lumen flexible PVC tubes. The open end of the tube was positioned in the duodenum close to the pylorus; correct positioning was verified fluoroscopically. DDAVP acetate (0.4 mg in 2 ml 0.9% aqueous sodium chloride) was applied at the start and the tube was rinsed with 2 ml 0.9% aqueous sodium chloride. Perfusion with aprotinin (ANTAGOSAN™, Hoechst, Germany; aqueous solution, 10,000 kallikrein inactivator units/ml) started immediately after application of DDAVP and continued for 4 h at a rate of 5 ml/min. A standard breakfast was given 5-10 min after application of DDAVP, and a standardized meal 4 h later. From 2 h after start onwards the volunteers were given 100 ml/h water orally. Each volunteer participated in three sessions.
Bioavailability was determined for each subject in a separate session by intravenous bolus injection of DDAVP (4 μg); blood samples were drawn before and up to 8 h after drug application and analyzed for DDAVP as described above.

[2] = pH 6.5
Experimental: (§1) Human gastro-intestinal juice was obtained from healthy male volunteers who had been fasting for 8 h. A tube was introduced intranasally after local anaesthesia with xylocaine, and gastric juice was collected. Thereafter one standardized meal was given 1 h before sampling of duodenal and distal jejunum juice and another the next morning before the collection of distal ileal juice. After centrifugation the gastric and intestinal juices were frozen in aliquots of 1 ml and stored at -20° C.
(§2) The peptide or peptide analog (10 μl of 10 mM peptide in 0.9% aqueous NaCl) was added to 190 μl of undiluted juice at 37° C. Aliquots of 25 μl were withdrawn at intervals and mixed with 100 μl acetone to stop the reaction. After centrifugation for 10 min at 10,000 g, 10 μl of the supernatant was analyzed by reversed phase HPLC. The effects of increasing amounts of aprotinin were examined under the above conditions in intestinal juice from the ileum.
(§3) Analysis was carried out in a Varian 5000 HPLC analyzer equipped with a UV-detector (220 nm). Column Bondapak TM C18 (3.9×300 mm), eluant MeOH/0.025M NH4 Ac (isocratic conditions), flow rate 1 ml/min.

[3] = in the presence of aprotinin, rat; cited from earlier work
[4] = Degradation of peptide in human gastro-intestinal juice (HPLC); details: intestinal juice from the ileum, pH 6.5, increasing amounts of aprotinin
Experimental: as §1, §2, §3

Increase of DDAVP absorption in presence of aprotinin [1]: about five-fold
DDAVP absorption (bioavailability) ([1]; male, 0.4 mg): about 0.1 % by weight
DDAVP degraded to (after 35 min) [2]: about 50%
Molecule: NC(=O)CC[C@@H]1NC(=O)[C@H](Cc2ccccc2)NC(=O)[C@H](Cc2ccc(O)cc2)NC(=O)CCSSC[C@@H](C(=O)N2CCC[C@H]2C(=O)N[C@H](CCCN=C(N)N)C(=O)NCC(N)=O)NC(=O)[C@H](CC(N)=O)NC1=O [DDAVP, desmopressin]

Molecule: (1-deamino-4-valine)-8-D-arginine-vasopressin
Urine retention after gastric administration of an aqueous solution [3]: moderately enhanced

Inhibition of DDAVP degradation by aprotinin [4]: concentration-dependent inhibition
Molecule: aprotinin

Source: US5780434A, “Composition for oral administration of peptides” (Ferring B.V., priority 1993, dated 1998)
